Results published in US20230218716A1, “COMPOSITIONS AND METHODS FOR TREATING ATRIAL FIBRILLATION” (Ohio State Innovation Foudation, priority 2020, published 2023).
Where a name gives a salt, the structure may show the parent alone.

How the values were obtained:
[1] = cited from earlier work
[2] = test system: Langendorff-perfused mouse hearts; conditions: VEGF 500 pg/ml, perfused 60 minutes; vehicle 100±9%; n=3 hearts/group
Description: (§1) Langendorff preparations: For optical mapping and ex vivo electrocardiography (ECG) studies, hearts were perfused (at 40-55 mm Hg) in a Langendorff configuration with oxygenated, modified Tyrode's solution (containing, in mM: NaCl 140, KCl 5.4, MgCl2 0.5, dextrose 5.6, HEPES 10; pH adjusted to 7.4) at 37° C. as previously described (Veeraraghavan R, et al. Pflugers Arch. 2015 467:2093-2105; Veeraraghavan R, et al. Elife. 2018 7; Radwanski P B, et al. Cardiovascular research. 2015 106:143-52; Radwanski P B, et al. Heart rhythm. 2010 7:1428-35; Veeraraghavan R and Poelzing S. Cardiovascular research. 2008 77:749-56.

[3] = test system: Langendorff-perfused mouse hearts
Description: as §1
Optical Mapping and Volume-conducted Electrocardiography (ECG): Optical voltage mapping was performed using the voltage sensitive dye, di-4-ANEPPS (15 μM; ThermoFisher Scientific, Grand Island, N.Y.), as previously described (Veeraraghavan R, et al. Pflugers Arch. 2015 467:2093-2105; Veeraraghavan R, et al. Pflugers Arch. 2016 468:1651-61; Veeraraghavan R and Poelzing S. Cardiovascular research. 2008 77:749-56), in order to quantify conduction velocity. Motion was suppressed by adding blebbistatin (10 μM) to the perfusate. Preparations were excited by 510 nm light and fluorescent signals passed through a 610 nm longpass filter (Newport, Irvine, Calif.) and recorded at 1000 frames/sec using a MiCAM Ultima-L CMOS camera (SciMedia, Costa Mesa, Calif.). Activation time was defined as the time of the maximum first derivative of the AP (Girouard S D, et al. J Cardiovasc Electrophysiol. 1996 7:1024-38), and activation times were fitted to a parabolic surface (Bayly P V, et al. IEEE Trans Biomed Eng. 1998 45:563-71). Gradient vectors evaluated along this surface were averaged along the fast axis of propagation (±15°) to quantify CV.

mice = conditions: intraperitoneal VEGF 10 or 50 ng/kg; epinephrine 1.5 mg/kg and caffeine 120 mg/kg
Description: In vivo ECG: Continuous ECG recordings (PL3504 PowerLab 4/35, ADInstruments) were obtained from mice anesthetized with isoflurane (1-1.5%) as previously described (Koleske M, et al. The Journal of general physiology. 2018). Briefly, after baseline recording (5 min.), animals received either intraperitoneal VEGF (10 or 50 ng/kg; Sigma) or vehicle (PBS). After an additional 20 min, animals were injected intraperitoneally with epinephrine (1.5 mg/kg; Sigma) and caffeine (120 mg/kg; Sigma) challenge and ECG recording continued for 40 minutes. ECG recordings were analyzed using the LabChart 8 software (ADInstruments).

mouse hearts = conditions: VEGF high dose (500 pg/ml) vs. untreated controls
Source text: Primary Antibodies: The following primary antibodies were used for Western immunoblotting and fluorescence microscopy studies: connexin43 (Cx43; rabbit polyclonal; Sigma C6219); connexin40 (Cx40; rabbit polyclonal; ThermoFisher Scientific 36-4900); N-cadherin (N-cad; mouse monoclonal; BD Biosciences 610920); cardiac isoform of the voltage-gated sodium channel (Nav1.5; rabbit polyclonal; custom antibody (Veeraraghavan R, et al. Elife. 2018 7)); and the sodium channel β subunit (β1; rabbit polyclonal; custom antibody (Veeraraghavan R, et al. Elife. 2018 7))
Western Immunoblotting: Whole cell lysates of mouse hearts frozen using liquid nitrogen were prepared as previously described (Veeraraghavan R, et al. Elife. 2018 7; Koleske M, et al. The Journal of general physiology. 2018; Struckman H L, et al. Microsc Microanal. 2020:1-9). These were electrophoresed on 4-15% TGX Stain-free gels (BioRad, Hercules, Calif.) before being transferred onto a nitrocellulose membrane. The membranes were probed with primary antibodies against Cx43, Cx40, Nav1.5 and […] as well as mouse monoclonal antibody against GAPDH (loading control; Fitzgerald Industries, Acton, Mass.), followed by goat anti-rabbit and goat anti-mouse HRP-conjugated secondary antibodies (Promega, Madison, Wis.). Signals were detected by chemiluminescence using SuperSignal West Femto Extended Duration Substrate (ThermoFisher Scientific, Grand Island, N.Y.) and imaged using a Chemidoc MP imager (BioRad, Hercules, Calif.).

murine atria [4] = test system: murine atria
Description: Fixation for Transmission Electron Microscopy (TEM): Atria were dissected and fixed overnight in 2% glutaraldehyde at 4° C. for resin embedding and ultramicrotomy as previously described (Veeraraghavan R, et al. Pflugers Arch. 2015 467:2093-2105; Veeraraghavan R, et al. Elife. 2018 7).
Transmission Electron Microscopy (TEM): TEM images of the ID, particularly gap junctions (GJs) and mechanical junctions (MJs), were obtained at 60,000× magnification on a FEI Tecnai G2 Spirit electron microscope. Intermembrane distance at various ID sites was quantified using ImageJ (NIH), as previously described (Veeraraghavan R, et al. Pflugers Arch. 2015 467:2093-2105; Veeraraghavan R, et al. Elife. 2018 7).

murine atria [5] = conditions: VEGF-treated vs. control
Source text: (§2) Cryopreservation: Hearts were embedded in optimal cutting temperature compound and frozen using liquid nitrogen for cryosectioning and fluorescent immunolabeling as in previous studies (Veeraraghavan R, et al. Pflugers Arch. 2015 467:2093-2105; Veeraraghavan R, et al. Pflugers Arch. 2016 468:1651-61; Veeraraghavan R, et al. Elife. 2018 7; Veeraraghavan R and Gourdie R. Molecular biology of the cell. 2016 27:3583-3590). These samples were used for light microscopy experiments as described below.
(§3) Fluorescent Immunolabeling: Immuno-fluorescent labeling of cryosections (5 μm thickness) of fresh-frozen myocardium was performed, as previously described (Veeraraghavan R, et al. Pflugers Arch. 2015 467:2093-2105; Veeraraghavan R, et al. Elife. 2018 7; Koleske M, et al. The Journal of general physiology. 2018; Radwanski P B, et al. JACC: Basic to Translational Science. 2016 1:251-266). Briefly, cryosections were fixed with paraformaldehyde (2%, 5 minutes at room temperature), permeabilized with Triton X-100 (0.2% in PBS for 15 minutes at room temperature) and treated with blocking agent (1% BSA, 0.1% triton in PBS for 2 hours at room temperature) prior to labeling with primary antibodies (overnight at 4° C.). Samples were then washed in PBS (3×5 minutes in PBS at room temperature) prior to labeling with secondary antibodies.
For confocal microscopy, samples were then labeled with goat anti-mouse and goat anti-rabbit secondary antibodies conjugated to Alexa 405, Alexa 488, Alexa 568 and Alexa 647 were used (1:8000; ThermoFisher Scientific, Grand Island, N.Y.). Simultaneous labeling with two rabbit or mouse primary antibodies was accomplished by direct fluorophore conjugation of primary antibodies (Zenon labeling kits, ThermoFisher Scientific, Grand Island, N.Y.). Samples were then washed in PBS (3×5 minutes in PBS at room temperature) and mounted in ProLong Gold (Invitrogen, Rockford, Ill.). For STimulated Emission Depletion (STED) microscopy, samples were prepared similar to confocal microscopy but labeled with Alexa 594 and Atto 647N fluorophores. […]

murine atria [6] = test system: murine atria; remark: listed apart in the source
Source text: as §2, §3
For confocal microscopy, samples were then labeled with goat anti-mouse and goat anti-rabbit secondary antibodies conjugated to Alexa 405, Alexa 488, Alexa 568 and Alexa 647 were used (1:8000; ThermoFisher Scientific, Grand Island, N.Y.). Simultaneous labeling with two rabbit or mouse primary antibodies was accomplished by direct fluorophore conjugation of primary antibodies (Zenon labeling kits, ThermoFisher Scientific, Grand Island, N.Y.). Samples were then washed in PBS (3×5 minutes in PBS at room temperature) and mounted in ProLong Gold (Invitrogen, Rockford, Ill.). For STimulated Emission Depletion (STED) microscopy, samples were prepared similar to confocal microscopy but labeled with Alexa 594 and Atto 647N fluorophores. For STochastic Optical Reconstruction Microscopy (STORM), samples were labeled with Alexa 647 and Biotium CF 568 fluorophores. STORM samples were then washed in PBS (3×5 minutes in PBS at room temperature) and optically cleared using Scale U2 buffer (48 hours at 4° C.) prior to imaging (Veeraraghavan R, et al. Pflugers Arch. 2016 468:1651-61; Veeraraghavan R, et al. Elife. 2018 7; Veeraraghavan R and Gourdie R. Molecular biology of the cell. 2016 27:3583-3590).
Single Molecule Localization: STORM imaging was performed using a Vutara 352 microscope (Bruker Nano Surfaces, Middleton, Wis.) equipped with biplane 3D detection, and fast sCMOS imaging achieving 20 nm lateral and 50 nm axial resolution, as previously described (Veeraraghavan R, et al. Elife. 2018 7; Veeraraghavan R and Gourdie R. Molecular biology of the cell. 2016 27:3583-3590; Struckman H L, et al. Microsc Microanal. 2020:1-9; Bonilla I M, et al. Sci Rep. 2019 9:10179). Individual fluorophore molecules were localized with a precision of 10 nm. The two-color channels were precisely registered using localized positions of several TetraSpeck Fluorescent Microspheres (ThermoFisher Scientific, Carlsbad, Calif.) scattered throughout the field of view, with the procedure being repeated at the start of each imaging session. Protein clustering and spatial organization were quantitatively assessed from single molecule localization data using STORM-RLA, a machine learning-based cluster analysis approach, as previously described (Veeraraghavan R and Gourdie R. Molecular biology of the cell. 2016 27:3583-3590).

[7] = both low (100 pg/ml) and high (500 pg/ml) doses vs. untreated controls

O[C@H](c1cc(C(F)(F)F)nc2c(C(F)(F)F)cccc12)[C@@H]1CCCCN1 (relative stereo) [Mefloquine hydrochloride, (R*,S*)-(±)-alpha-2-piperidinyl-2,8-bis(trifluoromethyl)-4-quinolinemethanol]
Solubility in ethanol ([1]; ethanol): soluble | Solubility in water ([1]; water): slightly soluble

VEGF
Levels of FITC-dextran extravasated relative to vehicle controls [2]: 201±7% | P wave duration ([3]; 30 minutes of VEGF perfusion (100 and 500 pg/ml) vs. untreated control): significant P-wave prolongation | Incidence of burst pacing-induced atrial arrhythmias ([3]; VEGF 100 and 500 pg/ml, 30 minutes, 10 s burst pacing at 50, 40, 30 ms): increased the incidence of burst pacing-induced atrial arrhythmias in dose-dependent fashion | Atrial conduction velocity ([3]; VEGF 100 and 500 pg/ml, 30 minutes, paced at cycle length 100 ms): significantly and dose-dependently decreased | Atrial arrhythmias in vivo after caffeine and epinephrine challenge (mice): elicited atrial arrhythmias in VEGF-treated mice but not in untreated controls | Expression level of Cx43 (mouse hearts): no significant difference | Expression level of N-cad (mouse hearts): no significant difference | Expression level of Nav1.5 (mouse hearts): no significant difference | Expression level of β1 (mouse hearts): no significant difference | Expression of Cx40 (mouse hearts): slightly elevated | Intermembrane distance at GJ-adjacent sites (murine atria [4]; [7]): significantly increased | Intermembrane distance at MJ-adjacent sites (murine atria [4]; [7]): significantly increased | Dose dependence of ID swelling (murine atria [4]; low vs. high dose of VEGF): dose-dependent fashion at GJ-adjacent perinexi but not near MJ | Nav1.5 enrichment ratio near Cx43 (STED) (murine atria [5]; <100 nm from Cx43): significantly decreased | β1 enrichment ratio near Cx43 (STED) (murine atria [5]; <100 nm from Cx43): significantly decreased | Nav1.5 enrichment ratio at N-cad-rich sites (STED) (murine atria [5]): trended towards a decrease | β1 density at N-cad-rich plicate ID sites (murine atria [6]; VEGF treated hearts vs. control): without significant changes | Nav1.5 enrichment ratio at N-cad-rich plicate ID sites (murine atria [6]; VEGF treated hearts, control 6.5±0.4): 4.6±0.4 | Nav1.5 enrichment ratio at Cx43-adjacent perinexal sites (murine atria [6]; VEGF treated hearts, control 10.5±0.3): 6.9±0.8 | β1 enrichment ratio at Cx43-adjacent perinexal sites (murine atria [6]; VEGF treated hearts, control 10.7±1.9): 5.4±0.7 | % of ID-localized Nav1.5 signal at N-cad-rich plicate ID sites (murine atria [6]; VEGF treated hearts, control 35±2%): 26±3% | % of ID-localized Nav1.5 signal at Cx43-adjacent perinexal sites (murine atria [6]; VEGF treated hearts, control 59±2%): 32±3% | % of ID-localized β1 signal at Cx43-adjacent perinexal sites (murine atria [6]; VEGF treated hearts, control 69±4%): 49±3%
